In general, inhibition refers to the drop in the measured response relative to a control, in per cent.

Assay [1] addresses Platelet-derived growth factor receptor (Homo sapiens) (UniProt P09619+P16234). In words: Inhibitory activity on PDGF-induced ERK phosphorylation in NIH3T3 cells at 20 uM. It counts as cell-based.
Assay [2] deals with Epidermal growth factor receptor (Homo sapiens) (UniProt P00533). The experiment in a line: Inhibitory activity on EGF-induced ERK phosphorylation in prostate cancer PC3 cell line at 20 uM. The settings on record: PC-3. It counts as cell-based.
In another assay the test system is PC-3. The experiment in a line: Antiproliferative activity against prostate cancer PC3 cell line at 20 uM by MTT method. It counts as functional. The settings on record: Homo sapiens. On the technique in general: Tetrazolium assays rely on reduction of a dye to a coloured formazan, in cell work by metabolically active cells.
The test system of another assay is A-431. The experiment in a line: Antiproliferative activity against human epidermal carcinoma A431 cell line at 20 uM by MTT method. It counts as functional.
Another assay relates to Fusarium oxysporum. The experiment in a line: Antifungal activity against Fusarium oxysporum at 0.5 mg/ml. It counts as functional.
Another assay has as its system Fusarium graminearum. The experiment in a line: Antifungal activity against Gibberella zeae at 0.5 mg/ml. It counts as functional.
A further assay has as its system Phytophthora infestans. The experiment in a line: Antifungal activity against Phytopthora infestans at 0.5 mg/ml. It counts as functional.

SMILES strings stand for the structures. Activity calls are given as the source filed them. The calls are words filed in the database; no cut-off is given here.

Chain of Epidermal growth factor receptor (Homo sapiens) (P00533 whole entry): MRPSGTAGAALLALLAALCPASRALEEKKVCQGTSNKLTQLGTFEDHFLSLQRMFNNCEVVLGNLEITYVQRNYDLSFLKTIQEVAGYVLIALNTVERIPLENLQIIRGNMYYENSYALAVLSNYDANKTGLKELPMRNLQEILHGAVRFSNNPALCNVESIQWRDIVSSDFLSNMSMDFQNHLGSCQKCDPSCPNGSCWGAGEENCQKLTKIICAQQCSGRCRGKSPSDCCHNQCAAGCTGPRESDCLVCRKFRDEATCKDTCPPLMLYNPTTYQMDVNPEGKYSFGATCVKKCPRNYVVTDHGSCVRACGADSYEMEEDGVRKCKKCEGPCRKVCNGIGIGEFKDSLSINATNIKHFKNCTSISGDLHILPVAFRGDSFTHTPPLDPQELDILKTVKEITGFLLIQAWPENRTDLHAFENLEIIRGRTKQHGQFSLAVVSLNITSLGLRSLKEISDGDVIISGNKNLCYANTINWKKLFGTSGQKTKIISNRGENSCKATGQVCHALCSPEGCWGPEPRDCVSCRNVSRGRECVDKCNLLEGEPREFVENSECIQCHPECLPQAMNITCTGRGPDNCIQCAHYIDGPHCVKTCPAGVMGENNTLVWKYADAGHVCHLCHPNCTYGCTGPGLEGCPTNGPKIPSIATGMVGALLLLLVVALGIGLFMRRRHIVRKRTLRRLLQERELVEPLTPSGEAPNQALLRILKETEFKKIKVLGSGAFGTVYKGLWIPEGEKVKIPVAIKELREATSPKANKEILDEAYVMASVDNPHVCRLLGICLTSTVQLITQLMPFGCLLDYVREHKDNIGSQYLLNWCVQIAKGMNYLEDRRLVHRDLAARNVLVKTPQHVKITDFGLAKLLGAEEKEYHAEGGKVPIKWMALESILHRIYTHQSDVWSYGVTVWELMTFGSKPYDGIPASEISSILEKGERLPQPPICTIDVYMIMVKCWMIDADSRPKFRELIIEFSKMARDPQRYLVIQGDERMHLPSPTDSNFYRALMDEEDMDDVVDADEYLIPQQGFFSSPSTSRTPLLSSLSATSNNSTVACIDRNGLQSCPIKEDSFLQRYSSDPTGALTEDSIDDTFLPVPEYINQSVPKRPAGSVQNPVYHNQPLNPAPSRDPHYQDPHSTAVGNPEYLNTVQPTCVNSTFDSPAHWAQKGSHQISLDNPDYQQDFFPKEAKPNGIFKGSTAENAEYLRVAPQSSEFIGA

As for `O=C1c2cccc(O)c2C(=O)c2c(O)cc(CO)cc21` [ALOE-EMODIN], the result in assay [1] was inactive. In assay [2], the result was Active. Besides, the inhibition at 20 µM stood at 63.4% in the assay with PC-3 and 73.6% with A-431. Besides, the results for the inhibition at 500 µg/mL in the assay on Fusarium oxysporum, in the assay on Fusarium graminearum and in the assay with Phytophthora infestans were 28.8%, 37.1% and 24.4%, respectively.

As for `Cc1cc(O)c2c(c1)C(=O)c1cccc(O)c1C2=O` [CHRYSOPHANOL], in assay [1], the outcome was inactive. Moreover, the inhibition at 20 µM with PC-3 is 19.5%; in the assay on A-431, 21.1%. Also, the inhibition at 500 µg/mL was determined as 5.4% in the assay on Fusarium oxysporum, 0% with Fusarium graminearum and 2.4% with Phytophthora infestans.

Consider `Cc1cc(O)c2c(c1)C(=O)c1cc(O)cc(O)c1C2=O` [EMODIN], for which the outcome in assay [1] was inactive. The inhibition result in the assay on PC-3 and in the assay with A-431 was “inactive” in each case. The inhibition at 500 µg/mL with Fusarium oxysporum came out at 9.37%; in the assay on Fusarium graminearum it was 25.7%; in the assay with Phytophthora infestans it was 21.2%.

Take `COc1cc(O)c2c(c1)C(=O)c1cc(C)cc(O)c1C2=O` [PHYSCION]: the outcome in assay [1] was inactive. The inhibition at 20 µM in the assay with PC-3 amounted to 73.2%; with A-431, 80.5%. The inhibition at 500 µg/mL with Fusarium oxysporum came to 0%; in the assay on Fusarium graminearum it was 10.1%; in the assay with Phytophthora infestans, 19.1%.

Turning to `O=C(O)c1cc(O)c2c(c1)C(=O)c1cccc(O)c1C2=O` [RHEIN], the result in assay [1] was inactive. This compound had an inhibition at 20 µM in the assay with PC-3 of 54.2%. Moreover, in the assay on A-431, the inhibition entry was “inactive”. Also, the results for the inhibition at 500 µg/mL in the assay on Fusarium oxysporum, with Fusarium graminearum and in the assay on Phytophthora infestans were 39.8%, 33.4% and 39.5%, respectively.

Source of the values: ChEMBL document CHEMBL1149401, “Isolation and inhibitory activity against ERK phosphorylation of hydroxyanthraquinones from rhubarb” (2006).
